{"source": "patent US8796415B2", "about": "“Inhibitors of guanine exchange factors and their use as anticancer drugs” (Centre National de la Recherche Scientifique, priority 2009, dated 2014)", "origin": "cited, not measured here", "target": "T1, p115RhoGEF (Homo sapiens, UniProt Q92888)", "T1 construct": "GST (N); made in house; host or cells: baculovirus system", "T1 sequence (Q92888 1-912)": "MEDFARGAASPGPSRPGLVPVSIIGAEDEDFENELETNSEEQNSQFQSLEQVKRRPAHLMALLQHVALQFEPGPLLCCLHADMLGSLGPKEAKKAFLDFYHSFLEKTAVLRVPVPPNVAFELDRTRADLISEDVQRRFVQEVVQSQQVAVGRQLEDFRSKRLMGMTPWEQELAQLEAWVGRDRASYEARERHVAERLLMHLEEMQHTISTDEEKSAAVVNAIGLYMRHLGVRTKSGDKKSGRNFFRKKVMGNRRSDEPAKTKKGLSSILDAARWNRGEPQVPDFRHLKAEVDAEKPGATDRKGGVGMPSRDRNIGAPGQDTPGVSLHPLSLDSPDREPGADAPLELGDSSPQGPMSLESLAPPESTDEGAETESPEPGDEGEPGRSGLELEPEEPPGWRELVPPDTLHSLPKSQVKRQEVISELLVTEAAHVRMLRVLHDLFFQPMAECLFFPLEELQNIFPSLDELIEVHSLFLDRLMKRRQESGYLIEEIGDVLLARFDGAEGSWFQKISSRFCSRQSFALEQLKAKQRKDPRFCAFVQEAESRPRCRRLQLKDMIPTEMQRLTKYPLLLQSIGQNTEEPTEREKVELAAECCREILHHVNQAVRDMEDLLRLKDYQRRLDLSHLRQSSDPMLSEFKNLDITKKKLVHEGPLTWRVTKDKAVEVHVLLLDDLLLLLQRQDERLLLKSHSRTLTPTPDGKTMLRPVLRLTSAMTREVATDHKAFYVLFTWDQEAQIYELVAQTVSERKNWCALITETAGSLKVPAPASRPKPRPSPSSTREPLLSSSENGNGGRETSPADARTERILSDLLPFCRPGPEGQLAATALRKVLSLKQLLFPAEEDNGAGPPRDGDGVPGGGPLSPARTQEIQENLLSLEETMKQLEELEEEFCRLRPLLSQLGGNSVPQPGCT", "conditions": "shown previously (Schmidt et al., 2002 and unpublished results); cited from earlier work"}
{"sequence": "AREGADGAICGYNLATLVMLGPSERVFCPLCEPCSSDIYELM [TRIPα]", "values": [{"measurement": "activity on p115RhoGEF", "value": "not active"}]}
